Assays:
[1] = test system: SW480 cells; assay: Cell death by PI staining and flow cytometry; assay type: cell-based; conditions: colorectal cancer SW480 cells, 5 μM
Description: (§1) FIG. 3A depicts the detection of cell death of a variety of cancer cells upon exposure to 3-deazaneplanocin (DZNep) compared to untreated controls cells (DMSO=dimethyl sulfoxide). Breast cancer MCF-7 and MB-468 cells, colorectal HCT116, RKO and SW480 cells were treated with 5 μm 3-deazaneplanocin for 48 and 72 h, and cell death was detected by means of propodium iodide (PI) staining and flow cytometry analysis. Shown is the average of three independent experiments.
(§2) Cell lines used in these examples were purchased from the American Type Culture Collection (Manassas, Va.). Cells were maintained in DMEM supplemented with 10% fetal bovine serum with glutamine, penicillin, and streptomycin. For drug treatment, cells were seeded the day before the drug treatment. Cells were treated with 5 μM 3-Deazaneplanocin A or 2 μM 5-aza-2′-deoxycytidine (5-AzaC; Sigma) for 72 hours and trichostatin A (TSA; Sigma) at 100 nM for 24 hours. For co-treatment of cells with 5-AzaC and TSA, 5-Aza was added for 48 hours and followed by TSA for 24 hours.
(§3) Cells were trypsinised and washed with PBS and fixed in 70% ethanol and processed for propidium iodide staining and FACS analysis. For the caspase 3 activity assay and mitochondrial membrane potential detection, cells were stained with anti-active caspase 3 and JC-1, respectively, according to the manufacturer's instructions (BD Bioscience).
(§4) It was observed that 3-deazaneplanocin at 5 μM could induce 25% cell death at 48 hours and 45% of cell death at 72 hours, as determined by propodium iodide (PI) staining and flow cytometry analysis (FIG. 3A).

[2] = test system: HCT116 cells; assay: Cell death by PI staining and flow cytometry; assay type: cell-based; conditions: colorectal cancer HCT116 cells, 5 μM
Description: as §1, §2, §3, §4

[3] = test system: RKO cells; assay: Cell death by PI staining and flow cytometry; assay type: cell-based; conditions: colorectal cancer RKO cells, 5 μM
Description: as §1, §2, §3, §4

[4] = test system: Suv39h1; assay: Western blot of Suv39h1 protein levels; assay type: cell-based, human; conditions: HCT116 or MCF-7 cells, 5 μM, 48 and 72 hours
Description: (§5) Cell lines used in these examples were purchased from the American Type Culture Collection (Manassas, Va.). Cells were maintained in DMEM supplemented with 10% fetal bovine serum with glutamine, penicillin, and streptomycin. For drug treatment, cells were seeded the day before the drug treatment. Cells were treated with 5 μM 3-Deazaneplanocin A or 2 μM 5-aza-2'-deoxycytidine (5-AzaC; Sigma) for 72 hours and trichostatin A (TSA; Sigma) at 100 nM for 24 hours. For co-treatment of cells with 5-AzaC and TSA, 5-Aza was added for 48 hours and followed by TSA for 24 hours. Cell pellets were first lysed in RadioImmuno Precipitation Assay (RIPA) buffer, consisting of an aqueous solution of 25 mM Tris-HCl pH 7.6, 150 mM NaCl, 1% Nonidet-P 40 (NP-40), 1% sodium deoxycholate and 0.1% sodium dodecylsulfate (SDS), before further sonicated using a tissue homogeniser to release all the proteins. Equal amounts of protein were separated on SDS-polyacrylamide gels and transferred to polyvinylidene difluoride (PVDF) membranes. The blots were probed with antibodies against: EED (07-368), SUZ12 (07-379), SUV39H1 (07-550), BMI1 (05-637), tri-methylated H3-K27 (07-449), tri-methylated H3-K9 (07-442) and Acetyl-Histone H3 (06-599), and were purchased from Upstate. EZH2 (AC22) and Histone H3 (3H1) were from Cell Signaling. […]

[5] = test system: trimethylation of histone 3 at lysine 27 (H3-K27); assay: Western blot of histone H3 lysine 27 trimethylation; assay type: cell-based, human; conditions: HCT116 or MCF-7 cells, 5 μM, 48 and 72 hours
Description: as §5

[6] = test system: PRC2 target genes TGFBI, KRT17, FBXO32, ANXA8, DLX2; assay: Real-time RT-PCR of representative PRC2 targets in MCF-7 cells; assay type: cell-based, human
Description: I: MCF-7 cells were untreated or treated with 3-deazaneplanocin (DZNep), 5-azacytidine (5-AzaC) or a combination of 5-azacytidine and trichostatin A (AZA+TSA), and RNA was isolated for gene expression analysis.
Total RNA was isolated from cell lines using Trizol (Invitrogen) and was converted to cDNA using an RNA Amplification kit (Ambion). […] Quantitative real-time PCR was performed on a PRISM 7900 sequenced detector (Applied Biosystems) using TaqMan probes (Applied Biosystems). Samples were normalized to the levels of 18S ribosomal RNA.
The array results were further confirmed by real-time RT-PCR for representative PRC2 targets.

[7] = test system: MB-231 cells; assay: Apoptotic response time course by FACS analysis; assay type: cell-based; conditions: MB-231, 5 μM, time course to 120 hours
Description: (§6) FIG. 6A depicts an analysis of the breast cancer cell lines MCF-7, MB-468, SK-BR-3, MB-231, T47D and BT549 for an apoptotic effect of 5 μM 3-deazaneplanocin over a time frame of 120 hours. Cell death was measured by FACS analysis. Data presented are the average of three independent experiments.
as §3
(§7) To extend the observation seen in MCF-7 cells, additional breast cancer cell lines were screened, including MB-468, SK-BR-3, MB-231, T47D and BT549. […] To identify the PRC2 target genes associated with the cellular sensitivity to 3-deazaneplanocin, the array analysis was performed in these breast cancer cell lines before and after 3-deazaneplanocin treatment and the expression of the 47 identified PRC2 targets profiled. It was reasoned that some the PRC2 target genes might be differentially expressed between the sensitive and resistant cell lines, which might confer the distinct sensitivity to 3-deazaneplanocin. […] Both the real time and conventional RT-PCR analysis of the 4 gene set confirmed the array data (FIGS. 6D & 6E). […]

[8] = test system: BT-549 cells; assay: Apoptotic response time course by FACS analysis; assay type: cell-based; conditions: BT-549, 5 μM, time course to 120 hours
Description: as §6, §3, §7

[9] = test system: PRC2 target genes in MCF-7, MB-468, SK-BR-3, T47D, MCF10A, MB-231, BT549; assay: Array analysis of PRC2 targets in sensitive and resistant breast cancer cell lines; assay type: cell-based
Description: FIG. 6B depicts the results of array analysis in these breast cancer cell lines (MCF-7, MB-468, SK-BR-3 and T47D sensitive ? MCF10A, MB-231, BT549 resistant) before and after 3-deazaneplanocin treatment. […] Genes marked in bold are highly expressed in resistant cell lines relative to sensitive cell lines.
Total RNA was isolated from cell lines using Trizol (Invitrogen) and was converted to cDNA using an RNA Amplification kit (Ambion). The microarray hybridisation was performed using the Illumina Gene Expression BeadChip (Illumina) and data analysis was performed using GeneSpring software from Agilent Technologies. Gene expression of normal and primary breast tumor samples was performed using Affymetrix U133A GeneChips (Affymetrix, Santa Clara, Calif.) following the manufacturer's instructions. Gene expression data from individual arrays were normalized by median centering and average linkage hierarchical clustering was done using Cluster and Treeview softwares (http://rana.lbl.gov/EisenSoftware.htm). Quantitative real-time PCR was performed on a PRISM 7900 sequenced detector (Applied Biosystems) using TaqMan probes (Applied Biosystems). Samples were normalized to the levels of 18S ribosomal RNA.
as §7

SMILES: Nc1nccc2c1ncn2C1C=C(CO)C(O)C1O (stereo not drawn) [3-deazaneplanocin, 5-(4-amino-1H-imidazo[4,5-c]pyridin-1-yl)-3-(hydroxymethyl)-3-cyclopentene-1,2-diol]
- cell death [1]: obvious cell death
- cell death [2]: obvious cell death
- cell death [3]: obvious cell death
- Suv39h1 protein levels [4]: not affected
- trimethylation of histone 3 at lysine 27 (H3-K27) [5]: strongly reduced
- expression of ANXA8 and DLX2 (real-time RT-PCR) [6]: activated
- induction of TGFBI, KRT17 and FBX032 (real-time RT-PCR) [6]: only induced
- sensitivity to 3-deazaneplanocin-induced cell death [7]: highly resistant
- sensitivity to 3-deazaneplanocin-induced cell death [8]: highly resistant
- induction of FBXO32, LAMB3, PLAU, and PPP1R15A ([9]; four sensitive cell lines (MCF-7, MB-468, SK-BR-3, T47D)): commonly induced
- induction of the same PRC2 target genes in resistant cell lines ([9]; resistant cell lines (MCF10A, MB-231, BT549)): did not undergo marked further induction
- induction of TGFBI, IGFBP3, TNS3 and KRT17 ([9]; sensitive cell lines (MCF-7, MB-468, SK-BR-3, T47D)): induced in 3 out 4 sensitive cell lines

From patent US8058258B2, “Methods for cancer therapy and stem cell modulation” (Agency for Science, Technology and Research, priority 2006, dated 2011)
